A melting point compilation (Tetko et al.; mined from patent text by program, amines drawn as free bases though some values may be those of a salt)

Compared with `O=C(CNC(=O)c1ccc(C2=NOC(c3cc(Cl)cc(C(F)(F)F)c3)(C(F)(F)F)C2)c2ccccc12)NCC(F)(F)F` (stereo not drawn), `O=C(Nc1cccc(S(=O)(=O)NCC(F)(F)F)c1)c1cnn2c(C(F)(F)F)cc(-c3ccc(C(F)(F)F)cc3)nc12` is higher in melting point: 107 to 108 °C for the first, 259 °C for the second.

First: COc1cccc(C=CC(=O)C2C(=O)OC(=O)C(C(C)=O)=C2O)c1OC (stereo not drawn)
Second: CCOC(=O)C1=C(N)NC(C)=C(C(=O)OC)C1c1cc([N+](=O)[O-])ccc1Cl (stereo not drawn)
The melting point of the first is higher: 175 to 176 °C for the first, 124 °C for the second.

First: C=CCOc1cc(C(=O)CCCCCCCCCCCCC)c(O)c(C)c1C
Second: C#CC[C@H]1C(=O)O[C@@H]1C[C@@H](CCCCCCCCCCCCCCCCC)O[Si](C)(C)C(C)(C)C
The melting point of the first is higher: 65 to 66 °C for the first, 62 to 63 °C for the second.

Compared with `COC(=O)C(Cc1cc(C(C)(C)C)c(O)c(C)c1C)C(=O)OC`, `CC(C)(C)c1cc(C(=S)OCc2ccccc2)cc(C(C)(C)C)c1O` is lower in melting point: 140 to 143 °C for the first, 115 to 119 °C for the second.

First: C=Cc1ccc(CP(=O)(C(=O)c2c(C)cc(C)cc2C)C(=O)c2c(C)cc(C)cc2C)cc1
Second: Cc1cc(C)c(C(=NO)C(F)(F)F)c(C)c1
The melting point of the first is higher: 208 °C for the first, 119 to 125 °C for the second.

First: CCOC(=O)CN(c1ccc(Cl)cc1C(O)c1ccccc1Cl)S(=O)(=O)c1ccc(OC)c(OC)c1 (stereo not drawn)
Second: O=C(O)Cc1ccc(NC(=O)C(COc2ccccc2Cl)NS(=O)(=O)c2ccc(I)cc2)cc1 (racemic)
The melting point of the first is lower: 86 °C for the first, 198 to 200 °C for the second.

Compared with `CC(C)(C)OC(=O)c1ncn2c1[C@@H]1CCCN1C(=O)c1c-2cccc1[N+](=O)[O-]`, `CCOC(=O)c1c(-c2cccc(F)c2)c(C#N)n2c1CN(C(=O)OC(C)(C)C)CC2` is lower in melting point: 231 to 233 °C for the first, 129 to 131 °C for the second.

Compared with `COc1ccc(-c2c(Cl)c(CCl)nc3sc4c(c23)CCN(Cc2ccccc2)C4)cc1`, `CC(C)(Cc1c(Cc2ccccc2)c2cc(OCc3ccc4ccccc4n3)ccc2n1Cc1ccc(Cl)cc1)C(=O)O` is lower in melting point: 194 to 195 °C for the first, 178 °C for the second.

First: CN(C(CCn1c(=O)cc(C(F)(F)F)[nH]c1=O)C(=O)NO)S(=O)(=O)c1ccc(Oc2cccc(F)c2)cc1 (stereo not drawn)
Second: O=C(O)c1ccc(-c2ncn(-c3ccc(OC(F)(F)C(F)(F)F)cc3)n2)cc1
The melting point of the first is lower: 168 to 169 °C for the first, 225 °C for the second.

First: CCc1nc(N)sc1-c1ccncc1
Second: CCC(Cl)c1nc2cccnc2[nH]1 (stereo not drawn)
The melting point of the first is higher: 209 to 211 °C for the first, 137 °C for the second.

Compared with `Fc1ccc2nc(-c3ccccc3)cc(OCC3CO3)c2c1` (racemic), `O=c1c(-c2ccccc2)c(-c2ccccc2)oc2cc(OCC(O)CNC3CC3)ccc12` (stereo not drawn) is higher in melting point: 118 to 120 °C for the first, 135 to 137 °C for the second.

First: O=C(Cl)c1ccccc1SSc1ccccc1C(=O)Cl
Second: O=C(O)C1CCc2c(OCc3ccccc3)cccc21 (stereo not drawn)
The melting point of the first is higher: 145 to 148 °C for the first, 133 °C for the second.

Compared with `COc1cccc(C(CN(C)C)c2nnc3n2-c2ccc(Cl)cc2C(c2ccccc2)=NC3)c1` (stereo not drawn), `COc1cc(CC(=O)Nc2nn(-c3ccccc3)cc2C=O)ccc1OCc1nc(-c2ccco2)oc1C` is higher in melting point: 139 to 140 °C for the first, 190 to 191 °C for the second.

Compared with `Cc1c(-c2cc(Nc3cc4n(n3)CCN(C)C4)c(=O)n(COP(=O)(OCCC#N)OCCC#N)n2)cccc1N1Cc2cc(C(C)(C)C)sc2C1=O`, `Cc1nc2c(N)nc3ccc(OCc4ccccc4)cc3c2n1CCCCNC(=O)N1CCOCC1` is lower in melting point: 208 to 210 °C for the first, 178 to 180 °C for the second.

First: COC(=O)Cc1ccc[nH]c1=O
Second: CCc1ccccc1C=CC=C1SC(=S)N(CC(=O)O)C1=O
The melting point of the first is higher: 183 to 184 °C for the first, 161 to 183 °C for the second.

First: N=c1ccccn1CC(O)COc1cccc2ccccc12 (stereo not drawn)
Second: O=c1nc(-c2cccc(CS(=O)Cc3ccccc3)n2)sc2ccccc12 (stereo not drawn)
The melting point of the first is lower: 138 to 141 °C for the first, 187 to 189 °C for the second.

`CCON=Cc1ccccc1OCc1ccccc1C(=COC)C(=O)OC` and `O=C(O)C(=NOc1ccccc1)c1cccs1` cannot be ordered by melting point: 86 to 88 °C for the first, 86 °C for the second.

Compared with `COc1cc(C(=O)Nc2ccccc2C(c2ccc(O)cc2)c2ccc(O)cc2)ccc1[N+](=O)[O-]`, `O=CC(=Cc1ccc(OC(=O)c2ccc(Br)cc2)cc1)C(C=O)=Cc1ccc(OC(=O)c2ccc(Br)cc2)cc1` is higher in melting point: 129 to 131 °C for the first, 223 to 225 °C for the second.

Compared with `Cc1onc2c(=O)[nH]nc(-c3ccc(O)cc3)c12`, `Cc1nn(CC(F)(F)COCc2ccccc2)c(-c2ccc(F)cc2)c1-c1ccc2c(c1)NC(=O)CO2` is lower in melting point: 268 to 276 °C for the first, 154 to 155 °C for the second.

First: N#Cc1ccc(C(=O)N2CCC[C@H]2C(=O)O)cc1
Second: Cc1nnc(C)n1-c1ccc(C#N)cc1
The melting point of the first is lower: 80 to 85 °C for the first, greater than 230 °C for the second.

First: CC(=O)NC1CCC(N2CCNC2=O)CC1 (stereo not drawn)
Second: Cc1c(CNCC2CCOCC2)n(C)c2c(F)c(NC(=O)c3ccc(OC[C@@H]4CCCO4)cc3)ccc12
The melting point of the first is higher: 211 to 230 °C for the first, 132 to 134 °C for the second.

Compared with `CNC(=O)N1CC[C@H](OCc2cc(C(F)(F)F)cc(C(F)(F)F)c2)[C@H](Cc2ccccc2)C1` (relative stereo), `O=C1CCCC(=O)N1C(Sc1nnn[nH]1)c1ccccc1` (stereo not drawn) is lower in melting point: 160 to 161 °C for the first, 84 to 85 °C for the second.

First: OC(CN1CCN(c2ccncc2)CC1)c1ccc2nonc2c1 (stereo not drawn)
Second: COc1ccc(/C=N/Nc2nc(=O)[nH]cc2F)cc1
The melting point of the first is lower: 159 to 162 °C for the first, 202 to 208 °C for the second.

First: Cc1nn(-c2cc(OC(C)C)c(Cl)cc2F)c(=O)[nH]1
Second: CCOC(=O)CNCP(=O)(O)O
The melting point of the first is lower: 120 to 124 °C for the first, greater than 220 °C for the second.
